In patent US20220167627A1, “Microbial preparation of bacillus” (priority 2020, published 2022):

What was measured:
lettuce = assay: IAA sensitivity test on lettuce; format: in vivo
Description: Taking rice and lettuce for example, IAA sensitivity of the microbial preparation is tested in steps of: disinfecting seeds of the lettuce with 5% sodium hypochlorite and putting the seeds of the lettuce in another sterilized Petri dish in which a filter paper is disposed; adding 3 mL of 0.03 μM, 3 μM, 30 μM, and 300 μM of IAA aqueous solutions respectively; moving another sterilized Petri dish into another plant growth box for 3 days; and measuring a germination rate and a height of each lettuce and a length of a root of each lettuce.

rice seedlings = assay: IAA sensitivity test on rice seedlings; format: in vivo
Description: Taking rice and lettuce for example, IAA sensitivity of the microbial preparation is tested in steps of: disinfecting and germinating rice seedlings; putting the rice seedlings in a sterilized Petri dish in which a filter paper is disposed; […]; moving the sterilized Petri dish into a plant growth box for 4 days; measuring an average height of buds of the rice seedlings and an average height of roots of the rice seedlings;

## O=C(O)Cc1c[nH]c2ccccc12 [IAA]
lettuce; IAA 0.03 μM (lowest concentration), 3 days
  growth of the lettuce seedlings: reduces a growth of the lettuce seedlings
lettuce; IAA 0.03 μM, 3 days (no IAA: 5.3 mm)
  height of lettuce sprouts: 3.5 mm
lettuce; IAA 0.03 μM, 3 days (no IAA: 14.8 mm)
  length of lettuce roots: 8.8 mm
lettuce; IAA 300 μM, 3 days (no IAA: 78%)
  germination rate of seeds of the lettuce: 13%
Rice seedlings; IAA 0.03 μM to 30 μM, 4 days, FIG. 1
  growth of the roots of the rice seedlings: does not promote a growth of the roots
Rice seedlings; IAA 300 μM, 4 days, FIG. 1
  growth of the roots of the rice seedlings: limited
Rice seedlings; IAA within 0.00003 μM to 0.003 μM
  growth of the roots of the rice seedlings: do not grow obviously
